The results in this text go back to PubChem BioAssay AID1996.

Structures are written as SMILES. In brackets after ≈: the same amount, converted by molar mass. A value given as a limit tells only on which side of the number the result lay.

Broadly, the solubility (kinetic) is solubility judged after dilution from a stock solution rather than from solid.

For this series the following is noted: buffer; pH 7.4; 200.0 µM.
In turn, `CSc1ccc(CN2CCc3c([nH]c4ccccc34)C2)cc1` showed a kinetic solubility of 2 µg/mL (≈ 6.48 µM).

For `O=C1OC(Nc2ccc(F)c([N+](=O)[O-])c2)c2ccccc21` (configuration not stated), the solubility (kinetic) was found to be 42.6 µg/mL (≈ 148 µM).

`O=C(OCC(=O)N1CCCCCC1)c1ccc([N+](=O)[O-])cc1Cl` returned a kinetic solubility of 50 µg/mL (≈ 147 µM).

`COc1cccc(C(C)NC(=O)C2CCCO2)c1` (configuration not stated): the solubility (kinetic) came to 36.1 µg/mL (≈ 145 µM).

The compound `COc1ccc2c(c1)c(C(=O)C(C)N1CCCCC1)c(C)n2C` (configuration not stated) registered a solubility (kinetic) of less than 0.3 µg/mL.

Take `CCCOc1nc2ccccc2cc1/C=C/C(=O)O`: the kinetic solubility stood at 8.3 µg/mL (≈ 32.3 µM).

In turn, `CCOC(=O)C1=C(COC(=O)/C=C/c2ccco2)NC(=O)NC1C` (configuration not stated) gave a kinetic solubility of 23.1 µg/mL (≈ 69.1 µM).

Compound `CCCCC(=O)Nc1ccc(NCc2ccc(C)s2)cc1` had a solubility (kinetic) of 16 µg/mL (≈ 52.9 µM).

The compound `c1ccc(-n2cnc3cc(NCc4ccco4)ccc32)cc1` had a solubility (kinetic) of 35.5 µg/mL (≈ 123 µM).

`CCN1C(=O)CC(c2cccnc2)=Nc2ccccc21` displayed a solubility (kinetic) of more than 39.8 µg/mL.

Regarding `O=C(CN1C(=O)c2cccc3cccc1c23)NC1CCCCC1`, the kinetic solubility was 1.8 µg/mL (≈ 5.84 µM).

Compound `CC1(C)C(=O)Nc2ccccc2N1C(=O)COc1ccccc1C#N` yielded a solubility (kinetic) of 21.5 µg/mL (≈ 64.1 µM).

In turn, `O=C(c1ccccc1)c1ccccc1N1C(=O)C=CC1=O` gave a solubility (kinetic) of more than 41.6 µg/mL.

In the case of `COc1cccc(C=Nc2ccc(N3CCOCC3)cc2)c1O`, the kinetic solubility was determined as 33.7 µg/mL (≈ 108 µM).

`CN1C(=S)SC2CS(=O)(=O)CC21` (configuration not stated) displayed a kinetic solubility of more than 33.5 µg/mL.

Compound `N#Cc1ccc(C2N=C(c3ccccc3)NO2)cc1` (configuration not stated) registered a solubility (kinetic) of 15.3 µg/mL (≈ 61.4 µM).

The compound `COc1cccc(Nc2c([N+](=O)[O-])cncc2[N+](=O)[O-])c1` displayed a solubility (kinetic) of more than 43.5 µg/mL.

`CCN(CC)C(=O)CSc1nc(-c2ccccc2)cc(=O)[nH]1` displayed a solubility (kinetic) of more than 47.6 µg/mL.

For `CC(=O)N[C@@H](CS)C(=O)O`, the solubility (kinetic) is more than 24.5 µg/mL.

Regarding `O=C(Nc1ccccc1)Nc1nc(-c2ccccc2)cs1`, the solubility (kinetic) is less than 0.2 µg/mL.

Turning to `CS(=O)(=O)N1CCN(Cc2ccc([N+](=O)[O-])cc2)CC1`, the kinetic solubility is more than 44.9 µg/mL.

In the case of `Cc1cc(C(=O)COC(=O)c2ccc(F)cc2)c(C)n1C`, the solubility (kinetic) came out at 1.2 µg/mL (≈ 4.15 µM).

`CC1C2NC(=O)N(Cc3ccccc3)C1(C)Oc1ccccc12` (configuration not stated): the kinetic solubility came to 20.9 µg/mL (≈ 67.8 µM).

In the case of `CCc1sc(C(=O)Nc2cccnc2)cc1Br`, the kinetic solubility came to 3.9 µg/mL (≈ 12.5 µM).

Take `Cc1ccc(NC(=O)Nc2cnccn2)c(C)c1`: the solubility (kinetic) is 2.2 µg/mL (≈ 9.08 µM).

For `CCn1c(CCCNC(=O)c2ccco2)nc2ccccc21`, the solubility (kinetic) amounted to 42.1 µg/mL (≈ 142 µM).

Regarding `CC(C)(C)c1ccc(CCC2OCC(C[N+]3(C)CCOCC3)O2)cc1.[I-]` (configuration not stated), the solubility (kinetic) is more than 71.3 µg/mL.

For `N#CC1=C(N)N(c2ccc(Cl)c(Cl)c2)C(=O)C1`, the solubility (kinetic) was more than 40.2 µg/mL.

The compound `O=C(O)c1ccc(-c2nc3scc(-c4ccccc4)c3c(=O)[nH]2)cc1` showed a solubility (kinetic) of more than 52.3 µg/mL.

For `CCOC(=O)c1c2c3c(cccc3n(C)c1=O)C(=O)c1ccccc1-2`, the kinetic solubility turned out to be 2.6 µg/mL (≈ 7.8 µM).

In the case of `CC(SCc1cc(=O)n2c([nH]c3ccccc32)c1C#N)C(=O)O` (configuration not stated), the kinetic solubility is 21.7 µg/mL (≈ 66.3 µM).

Turning to `CSc1ncccc1C(=O)Nc1cc(Cl)ccc1N1CCOCC1`, the solubility (kinetic) turned out to be 4.4 µg/mL (≈ 12.1 µM).

The compound `Cc1ccc2oc(=O)c3cc(C(=O)N4CCN(C)CC4)sc3c2c1` showed a kinetic solubility of 11.8 µg/mL (≈ 34.5 µM).

`O=C(CN1CCc2ccccc2C1)Nc1ccc(F)cc1`: the solubility (kinetic) stood at 39.2 µg/mL (≈ 138 µM).

Consider `N#CCCSc1ccccc1NC(=O)c1cc(=O)c2ccccc2o1`, for which the solubility (kinetic) is 2.2 µg/mL (≈ 6.28 µM).

On to `N#Cc1nc(-c2ccccc2F)oc1N1CCCCC1`, for which the kinetic solubility was found to be 2.3 µg/mL (≈ 8.48 µM).

The compound `CC(Sc1nnc2n1CCCCC2)C(=O)Nc1ccccc1[N+](=O)[O-]` (configuration not stated) registered a solubility (kinetic) of more than 54.2 µg/mL.

`COc1ccc(C(=O)NCCc2c[nH]c3ccccc23)cc1OC` returned a kinetic solubility of 32 µg/mL (≈ 98.6 µM).

Take `O=S(=O)(c1ccc2ccccc2c1)N1CCNCC1`: the solubility (kinetic) stood at 32.7 µg/mL (≈ 118 µM).

As for `Fc1ccccc1-c1nc2nc3ccccc3nc2n1CC1CCCO1` (configuration not stated), the solubility (kinetic) is more than 52.3 µg/mL.

`Cc1cc2c(SCC(=O)NC3CCCCC3)ncnc2s1` yielded a solubility (kinetic) of 4.4 µg/mL (≈ 13.7 µM).

`CCC(CO)NC(=O)c1ccccc1C(F)(F)F` (configuration not stated) showed a solubility (kinetic) of 28 µg/mL (≈ 107 µM).

Regarding `COC(=O)c1sccc1NC(=O)c1cccs1`, the kinetic solubility was less than 0.6 µg/mL.

On to `CCN(CC)c1ccc(CNc2nc3ccccc3n2CC)cc1`, for which the solubility (kinetic) came to 10.9 µg/mL (≈ 33.8 µM).

Turning to `COc1cc(CN2CCNCC2)cc(OC)c1OC.Cl`, the solubility (kinetic) came to 23.1 µg/mL.

As for `Cc1ccc(OCCCCCN2CCOCC2)c(Cl)c1`, the solubility (kinetic) amounted to 26.3 µg/mL (≈ 88.3 µM).

With `Nc1ccc2nc3c(c(Cl)c2c1)CCCC3`, the kinetic solubility amounted to 25.1 µg/mL (≈ 108 µM).

Regarding `O=C(NCCCc1nc2ccccc2[nH]1)c1ccco1`, the kinetic solubility was more than 40.4 µg/mL.

Compound `Cc1cc2nsnc2c(S(=O)(=O)N2CCN(C)CC2)c1C` came in with a kinetic solubility of 47.9 µg/mL (≈ 147 µM).

`COc1cccc2c(=O)c3c([nH]c12)OC(C)(C)C3`: the kinetic solubility was more than 36.8 µg/mL.

Turning to `COc1ccccc1Nc1nc(NCC(C)C)nc(N)c1[N+](=O)[O-]`, the solubility (kinetic) turned out to be 0.3 µg/mL (≈ 0.903 µM).

`COc1cccc(N/C=C/C(=O)c2ccc(C)cc2)c1` gave a kinetic solubility of 2.4 µg/mL (≈ 8.98 µM).
